According to patent US20050042714A1, “Glycoconjugates of sialic acid derivates, methods for their production and use thereof” (priority 2001, published 2005):

Tests used:
HL60-I cells [1] = assay: metabolic complementation assay: lectin staining (VVA, LFA, TLM) of analogue-treated cells by flow cytometry; format: cell-based, human; details: 5 mM, 24 h; for effect on VVA binding: decrease = masking of GalNAc by sialic acid
Description: Medium supplementation with some synthetic sialic acid analogues restores cell surface sialylation in hyposialylated HL60-I cells. Cells were cultivated in the presence of indicated synthetic sialic acid analogue (5 mM) for 24 h and stained with either directly fluorochrome-coupled lectins (VVA, LFA) or biotin-coupled lectin (TLM) and streptavidin-FITC and analyzed by flow cytometry. Values are given as “relative factor of change” (RFC) of the “mean fluorescence intensity” (MFI) of sialic acid-treated cells relative to untreated cells. The bars represent arithmetic means±SD (n^34) of one (x) or ≧two experiments.
To test whether cells can incorporate synthetic sialic acid analogues from the culture medium, a metabolic complementation assay was performed on endogenously hyposialylated, UDP-GlcNAc-2-epimerase-deficient HL60-I cells.
Cells were cultivated for 24 h in the presence of one of 16 different synthetic sialic acid analogues, carrying distinct C5 or C9 modifications (FIG. 1), and subsequently, changes in cell surface sialylation were assessed by flow cytometry using three fluorochrome-conjugated sialic acid-sensitive lectins. Vicia villosa agglutinin (VVA) detects GalNAc residues, and its binding sites can be masked by the addition of terminal sialic acid residues.
In sugar supplementation assays, cells seeded at 5×10^5 cells/ml in culture medium buffered with 40 mM HEPES (pH 7.2) were cultivated for 24 h in the presence or absence of 5 mM sialic acids (stocks of 100 mM dissolved in H2O, stored at 4° C.).
(§1) Lyophilized FITC-conjugated lectins Vicia villosa (VVA) was obtained from Sigma, dissolved in H2O (1 mg/ml), aliquoted and stored at −20° C. according to the manufacturer's instructions. FITC-conjugated Limax flavus agglutinin (LFA) was from EY Laboratories (San Manteo, Calif., USA) and biotin-coupled Tritrichomonas mobilensis agglutinin (TLM) from Calbiochem. Lectin staining procedure and fluorescence-activated cell scanning on a Becton Dickinson FACScan cytometer using Cellquest II software were carried out as described (Keppler, O. T., Molden-hauer, G., Oppenländer, M., Schwartz-Albiez, R., Berger, E. G., Funderud, S., and Pawlita, M. (1992) Eur J Immunol 22(11), 2777-81). Briefly, cells (3×10^5) were washed twice in cold PBS and then incubated in 100 μl PBS/0.05% NaN3, containing either fluorochrome-conjugated lectins VVA (50 μg/ml), LFA (20 μg/ml), or biotinylated TLM (20 μg/ml) for 45 min on ice in the dark. For biotinylated TLM a secondary incubation step with steptavidin-FITC (20 μg/ml) (Sigma) for 30 min on ice in the dark is required. After washing with PBS, cells were resuspended in 300 μl PBS and analyzed by flow cytometry.

HL60-I cells [2] = assay: uptake of peracetylated/esterified NeuAc: VVA and TML lectin staining by flow cytometry; format: cell-based, human; details: HL60-I cells, 0.03 to 1 mM (NeuAc 1 or 5 mM), 72 h, 0.5% DMSO
Description: Peracetylation of NeuAc only facilitates uptake if the carboxyl group is additionally esterified. Hyposialylated HL60-I cells were cultivated in the presence of indicated synthetic sialic acid analogue (stock solution 200 mM in DMSO) ranging from 0.03 to 1 mM or 0, 1 or 5 mM NeuA for 72 h with DMSO concentrations adjusted to 0.5%. Cells were stained with either directly fluorochrome-coupled lectin VVA, or biotin-coupled lectin (TML) and streptavidin-FITC for analysis by flow cytometry. Values given are relative factors of change of the mean fluorescence intensity of pretreated cells relative to untreated cells. The bars represent arithmetic means±SD (n=3). Molecular structures are given below the diagram.
Sugars are very hydrophilic and it has been shown that increasing the hydrophobicity by peracetylation of hydroxyl groups enables or facilitates uptake of disaccharides (Collins, B. E., Fralich, T. J., Itonori, S., Ichikawa, Y. and Schnaar, R. L. (2000) Glycobiology, 10, 11-20; Sarkar, A. K., Fritz, T. A., Taylor, W. H. and Esko, J. D. (1995) Proc Natl Acad Sci USA, 92, 3323-7; Sarkar, A. K., Rostand, K. S., Jain, R. K., Matta, K. L. and Esko, J. D. (1997) J Biol Chem, 272, 25608-16). For ManNAc derivatives it has been shown that peracetylation reduces required medium concentrations (Collins et al., 2000). The acetyl groups are cleaved-off intracellularly by cellular esterases (Collins et al., 2000; Sarkar et al., 1995; Sarkar et al., 1997) and the derivatives are then processed as known for the non-acetylated sugars. In order to address the question whether peracetylation also facilitates uptake of N-acetylneuraminic acid, HL60-I cells were cultivated in the presence of peracetylated NeuAc at concentrations ranging from 0.03 mM to 1 mM for 3 days. Changes in cell surface sialylation were measured by flow cytometry using Vicia Villosa agglutinin (VVA) and Tritrichomonas mobilensis lectin (TML). […] This represents a reduction in concentration by more than 16-fold and is in a similar range as reported for peracetylated ManNAc and ManNAc (Collins et al., 2000).
as §1

[3] = stability under physiological conditions; format: physicochemical; details: most likely hydrolysed to NeuAc in the cytoplasm
BJA-B K20 cells = assay: HPLC of membrane-associated sialic acids from analogue-treated cells; format: cell-based, human; details: serum-free, 5 mM, 48 h
Description: Sialic acid analogues are incorporated in cell surface glycoconjugates. HPLC chromatograms of DMB-derivatised sialic acids hydrolysed from glycoproteins of sialic acid analogue-treated BJA-B K20 cells. (A) standards, (B) untreated cells, (C) cells cultivated in 5-N-fluoroacNeu, (D) cells cultivated in 9-iodo-NeuAc. Peaks were identified as follows: NeuGc (internal standard), NeuAc, 5-N-fluoroac-Neu, 9-iodo-NeuAc, Na-pyruvate (internal standard). Internal standards were added to each sample.
To confirm that synthetic sialic acid analogues supplementing the medium were taken up and metabolically incorporated as analogues into surface sialoglyco-conjugates the membrane-associated sialic acid fraction was analyzed by High Performance Liquid Chromatography (HPLC). […]
To confirm that the modifications are still present after incorporation into glycoconjugates sialic acids were cleaved off cell surfaces and analyzed by HPLC. […] Sialic acids derivation was performed according to a method as given below and samples were analyzed on a reversed-phase C18 column as described (Keppler, O. T., Stehling, P., Herrmann, M., Kayser, H., Grunow, D., Reutter, W., and Pawlita, M. (1995) J Biol Chem 270(3), 1308-14).

CD75s in BJA-B K20 cells = assay: de novo expression of sialoglycan CD75s by indirect immunofluorescence (antibody HH2); format: cell-based, human; details: serum-free, 5 mM, 0-6 h
Description: Kinetics of 9-iodo-NeuAc-induced expression of sialoglycan CD75s in BJA-B K20 cells in comparison with its precursor 6-iodo-ManNAc. Cells were cultivated under serum-free conditions for at least 7 d and then either ManNAc, 6-iodo-ManNAc, 9-iodo-NeuAc or NeuAc (each 5 mM) was added. The de novo expression of CD75s was monitored at the indicated time points by indirect immunofluorescence using fixed and permeabilized cells. Representative confocal pictures of two independent experiments are shown.
The superiority of biosynthetic incorporation of sialic acid variants by NeuAc derivatives over derivatized ManNAc precurors was shown by directly comparing 9-iodo-NeuAc and the corresponding 6-iodo-ManNAc. K20 cells cultivated under serum-free conditions were incubated for 0-6 h with either 9-iodo-NeuAc or 6-iodo-ManNAc prior to analysis of CD75s expression. CD75s is an α-2,6 sialylated cell surface antigen of mature B-lymphocytes which is not detectable with the monoclonal antibody HH2 in K20 cells cultured in the absence of serum. […] We conclude that presentation of C9-modified sialic acids on the cell surface is only possible by medium supplementation with sialic acid analogues, but not with ManNAc analogues. […]

[4] = tested on: B-lymphotropic papovavirus (LPV) in BJA-B K88 cells; assay: LPV infection of analogue-treated normally sialylated cells (VP1 ELISA); format: cell-based, human
Description: Changes in permissivity for the sialic acid-dependent B-lymphotropic papovavirus (LPV) in hyposialylated (K20) and normally sialylated (K88) BJA-B cells after treatment with sialic acid analogues. Cells were treated with analogues or NeuAc for 3d. 50 h post LPV inoculation the LPV infection was quantified (A) by detecting the amount of LPV VP1 in cell lysates relative to the total protein content by ELISA and (B) by indirect immunofluorescence microscopy as percentage of LPV T-antigen-positive BJA-B K20 cells. A, values are given as arithmetic means±SD of three independent experiments. B, representatives of three experiments are shown. DAPI-staining (left) indicates the total amount of cells in the section, on the right LPV T-antigen positive cells are shown with the average percentage given beside. […]
BJA-B subclones were infected with the B-lymphotropic papovavirus (LPV) as described (Keppler, O. T., Herrmann, M., Oppenländer, M., Meschede, W., and Pawlita, M. (1994) J Virol 68(11), 6933-9). […] LPV infection was quantified by indirect immunofluorescence microscopy as percentage of LPV T-antigen positive cells and the amount of LPV VP1 in cell lysates was determined by ELISA relative to the total protein extracted.

[5] = tested on: B-lymphotropic papovavirus (LPV) in BJA-B K20 cells; details: NeuAc treatment, stated as known; cited from earlier work

| stability under physiological conditions [3] | Compound | effect on LFA binding (HL60-I cells [1]) | effect on TLM binding (HL60-I cells [1]) | effect on VVA binding (HL60-I cells [1]) | effect on LFA binding (HL60-I cells [1]; listed as NeuAc-Me-Ester) | effect on TLM binding (HL60-I cells [1]; listed as NeuAc-Me-Ester) | effect on cell surface sialylation (VVA and TML binding) (HL60-I cells [2]) | increase of LFA binding (relative factor of change of mean fluorescence intensity vs untreated cells) (HL60-I cells [1]) [fold] | increase of TLM binding (relative factor of change of mean fluorescence intensity vs untreated cells) (HL60-I cells [1]) [fold] | share of membrane-associated sialic acids consisting of the analogue (BJA-B K20 cells) [%] | time to strong intracellular CD75s signal (CD75s in BJA-B K20 cells) [h] | effect on CD75s expression within 6 h (CD75s in BJA-B K20 cells) | LPV-permissivity [4] | cells infected by LPV [5] |
| --- | --- | --- | --- | --- | --- | --- | --- | --- | --- | --- | --- | --- | --- | --- |
| unstable under physiological conditions | COC(=O)C1(O)C[C@H](O)[C@@H](NC(C)=O)[C@H]([C@H](O)[C@H](O)CO)O1 (stereo partly drawn) [analogue o, methyl N-acetyl neuraminate] | increased binding of LFA | increased binding | significantly decreased VVA-binding | very similar to those of NeuAc | very similar to those of NeuAc | did not affect uptake | – | – | – | – | – | – | – |
| – | CC(=O)N[C@H]1[C@H]([C@H](O)[C@H](O)CI)OC(O)(C(=O)O)C[C@@H]1O (stereo partly drawn) [analogue f, 5-N-acetyl-9-deoxy-9-iodo-neuraminic acid] | increased binding of LFA | increased binding | significantly decreased VVA-binding | – | – | – | 19.2 | 6.4 | 86.1 | ≤ 1 | – | – | – |
| – | CC(=O)N[C@@H]1C(O)O[C@H](CI)[C@@H](O)[C@@H]1O (stereo partly drawn) [6-iodo-ManNAc, reference compound] | – | – | – | – | – | – | – | – | – | – | did not show any effect | – | – |
| – | CC(=O)N[C@H]1[C@H]([C@H](O)[C@H](O)CO)OC(O)(C(=O)O)C[C@@H]1O (stereo partly drawn) [NeuAc, N-acetyl neuraminic acid, reference compound] | – | – | decreased markedly | – | – | significant changes in lectin binding | 9.5 | 4.8 | – | – | – | did not change permissivity significantly | about 17% |
